Test results from ChEMBL document CHEMBL1201862, “PubChem BioAssay data set” (2004).
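Grown in 96-well plates, cells were treated for 48 hours with each compound at five concentrations. Insufficient inhibition: endpoint recorded as highest concentration tested. GI50 = concentration required for 50% inhibition of growth.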 Activity calls are given as the source filed them. Rule as the data show it: active = GI50 up to about 1.1 µM and inactive = higher.

What was measured:
Assay in all cases: NCI-60 cell line screen, 48 h
786-0 = system: 786-0
A498 = system: A498
ACHN = system: ACHN
COLO 205 = system: COLO 205
DU-145 = system: DU-145
HOP-62 = system: HOP-62
HT-29 = system: HT-29
IGROV-1 = system: IGROV-1
K562 = system: K562
LOX IMVI = system: LOX IMVI
NCI-H23 = system: NCI-H23
NCI-H522 = system: NCI-H522
OVCAR-3 = system: OVCAR-3
PC-3 = system: PC-3
RXF 393 = system: RXF 393
SK-MEL-28 = system: SK-MEL-28
SK-MEL-5 = system: SK-MEL-5
SK-OV-3 = system: SK-OV-3
UACC-62 = system: UACC-62
RPMI-8226 = system: RPMI-8226

Measured: GI50

O=C1N(CN2CCOCC2)CN(CN2CCOCC2)C(=O)N1Cc1ccc(-c2ccc(CN3C(=O)N(CN4CCOCC4)CN(CN4CCOCC4)C3=O)cc2)cc1
inactive: 786-0 9.16 µM | A498 15.3 µM | ACHN 27.4 µM | COLO 205 > 21 µM | DU-145 16.8 µM | HOP-62 21.6 µM | HT-29 19.6 µM | IGROV-1 11.6 µM | K562 3.75 µM | LOX IMVI 10 µM | NCI-H23 10.6 µM | NCI-H522 12.2 µM | OVCAR-3 7.78 µM | PC-3 20.8 µM | RXF 393 10.8 µM | SK-MEL-28 12.9 µM | SK-MEL-5 > 19.7 µM | SK-OV-3 32.9 µM | UACC-62 9.75 µM

COc1cc(S(=O)(=O)Nc2nc(-c3ccc(/N=C/c4ccccc4O)cc3)cs2)ccc1Cl
inactive: 786-0 48.2 µM | A498 41.7 µM | ACHN 41.7 µM | COLO 205 25.7 µM | DU-145 69.2 µM | HOP-62 40.3 µM | HT-29 44 µM | IGROV-1 31.4 µM | K562 30.4 µM | LOX IMVI 47 µM | NCI-H23 36.3 µM | NCI-H522 33.7 µM | OVCAR-3 33 µM | PC-3 39.1 µM | RXF 393 34.3 µM | SK-MEL-28 65.2 µM | SK-MEL-5 26 µM | SK-OV-3 44.9 µM | UACC-62 23.7 µM

CC(C)(C)c1ccc(-n2c3nc(=O)n(-c4ccccc4C(F)(F)F)c(=O)c-3cc3ccccc32)cc1
inactive: 786-0 25.7 µM | A498 31.3 µM | ACHN 15.8 µM | COLO 205 19.1 µM | DU-145 28.1 µM | HOP-62 18.3 µM | HT-29 8.32 µM | IGROV-1 29.1 µM | K562 16.9 µM | LOX IMVI 11.9 µM | NCI-H23 32.3 µM | NCI-H522 16.9 µM | OVCAR-3 13.6 µM | PC-3 17 µM | RXF 393 24.2 µM | SK-MEL-28 8.26 µM | SK-MEL-5 15 µM | UACC-62 14.9 µM

C=C(CN)CO[Si](C)(C)C(C)(C)C
inactive: 786-0 > 100 µM | A498 > 100 µM | ACHN > 100 µM | COLO 205 > 100 µM | DU-145 > 100 µM | HOP-62 > 100 µM | HT-29 > 100 µM | IGROV-1 > 100 µM | K562 > 100 µM | LOX IMVI > 100 µM | NCI-H23 > 100 µM | NCI-H522 > 100 µM | OVCAR-3 > 100 µM | PC-3 > 100 µM | RPMI-8226 > 100 µM | SK-MEL-28 > 100 µM | SK-MEL-5 > 100 µM | SK-OV-3 > 100 µM | UACC-62 > 100 µM

COC(=O)C(Cc1ccccc1)NP(=O)(O)OCC1OC(n2cc(I)c(=O)[nH]c2=O)CC1O (stereo unspecified)
inactive: 786-0 > 100 µM | A498 > 100 µM | ACHN > 100 µM | COLO 205 > 100 µM | DU-145 > 100 µM | HOP-62 > 100 µM | HT-29 > 100 µM | IGROV-1 > 100 µM | K562 > 100 µM | LOX IMVI > 100 µM | NCI-H23 > 100 µM | NCI-H522 > 100 µM | OVCAR-3 > 100 µM | PC-3 > 100 µM | RPMI-8226 > 100 µM | SK-MEL-28 > 100 µM | SK-MEL-5 > 100 µM | SK-OV-3 > 100 µM | UACC-62 > 100 µM

CC(C)(C)C1CC[C@H](O)[C@H]([C@H](O)CC2CC(=O)N(c3ccccc3)C(=O)C2)C1 (stereo partly specified)
inactive: 786-0 > 100 µM | A498 > 100 µM | ACHN > 100 µM | DU-145 > 100 µM | HOP-62 74.6 µM | HT-29 > 100 µM | IGROV-1 > 100 µM | K562 > 100 µM | LOX IMVI > 100 µM | NCI-H23 91.6 µM | NCI-H522 > 100 µM | OVCAR-3 > 100 µM | PC-3 > 100 µM | RXF 393 > 100 µM | SK-MEL-28 > 100 µM | SK-MEL-5 > 100 µM | UACC-62 31.5 µM
